Experimental data reported in PubChem BioAssay AID330 (DTP/NCI, 2004).
Values joined by “and” are separate entries in the source; they are usually repeats but may differ in a detail not shown here. Identical values can stand only once. Inconclusive results and toxic doses are left out.

Tested on: P388 leukemia ip, CD2F1 mice, survival T/C
Experiment: NCI In Vivo Anticancer Drug Screen. Data for tumor model P388 Leukemia (intraperitoneal) in CD2F1 (CDF1) mice
Details: endpoint: median survival time, higher = longer survival
Outline: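 Mice carrying the transplanted tumor received test compound or vehicle. Survival was recorded in each group, and the value is the treated-group measurement divided by that of the vehicle-treated control group.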

[1] = dose: 100.0 mg/kg/injection, schedule: Q01DX001 (ip), vehicle: saline with Tween-80
[2] = dose: 200.0 mg/kg/injection, schedule: Q01DX001 (ip), vehicle: saline with Tween-80
[3] = dose: 400.0 mg/kg/injection, schedule: Q01DX001 (ip), vehicle: saline with Tween-80
[4] = dose: 200.0 mg/kg/injection, schedule: Q04DX003 (ip), vehicle: saline with Tween-80
[5] = dose: 50.0 mg/kg/injection, schedule: Q01DX005 (ip), vehicle: Klucel (hydroxypropylcellulose) (HPC)
[6] = dose: 100.0 mg/kg/injection, schedule: Q01DX005 (ip), vehicle: Klucel (hydroxypropylcellulose) (HPC)
[7] = dose: 200.0 mg/kg/injection, schedule: Q01DX005 (ip), vehicle: Klucel (hydroxypropylcellulose) (HPC)
[8] = dose: 100.0 mg/kg/injection, schedule: Q01DX005 (ip), vehicle: saline with Tween-80
[9] = dose: 200.0 mg/kg/injection, schedule: Q01DX005 (ip), vehicle: saline with Tween-80
[10] = dose: 100.0 mg/kg/injection, schedule: Q01DX001 (ip), vehicle: saline
[11] = dose: 200.0 mg/kg/injection, schedule: Q01DX001 (ip), vehicle: saline
[12] = dose: 50.0 mg/kg/injection, schedule: Q01DX009 (ip), vehicle: saline with Tween-80
[13] = dose: 100.0 mg/kg/injection, schedule: Q01DX009 (ip), vehicle: saline with Tween-80
[14] = dose: 50.0 mg/kg/injection, schedule: Q01DX005 (ip), vehicle: saline with Tween-80
[15] = dose: 12.5 mg/kg/injection, schedule: Q01DX005 (ip), vehicle: Klucel (hydroxypropylcellulose) (HPC)
[16] = dose: 25.0 mg/kg/injection, schedule: Q01DX005 (ip), vehicle: Klucel (hydroxypropylcellulose) (HPC)

Compound: COc1cc(O)c2c(c1O)C1(C)C(=O)CCCC1(O)CC2=O (configuration not stated)
- T/C [1]: 90 % of control
- T/C [2]: 100 % of control
- T/C [3]: 100 % of control

Compound: CC(C)=CCC1=C(OC2OC(CO)C(O)C(O)C2O)C(=O)c2ccccc2C1=O (configuration not stated)
- T/C (dose: 6.25 mg/kg/injection, schedule: Q01DX009 (ip), vehicle: saline with Tween-80): 121 % of control
- T/C (dose: 12.5 mg/kg/injection, schedule: Q01DX009 (ip), vehicle: saline with Tween-80): 118 % of control
- T/C (dose: 25.0 mg/kg/injection, schedule: Q01DX009 (ip), vehicle: saline with Tween-80): 114 % of control

Compound: CCOC(=O)c1cc2ccccc2c(-c2ccccc2)c1C(=O)OCC
- T/C [1]: 97 % of control
- T/C [2]: 96 % of control
- T/C [3]: 90 % of control

Compound: Nc1oc([N+](=O)[O-])cc1[N+](=O)[O-]
- T/C (dose: 100.0 mg/kg/injection, schedule: Q01DX009 (ip), vehicle: saline): 106 % of control
- T/C (dose: 200.0 mg/kg/injection, schedule: Q01DX009 (ip), vehicle: saline): 118 % of control

Compound: CN(C)C1CC2CCCCC2CC1OC(=O)c1ccc([N+](=O)[O-])cc1 (configuration not stated)
- T/C (dose: 100.0 mg/kg/injection, schedule: Q04DX003 (ip), vehicle: saline with Tween-80): 101 % of control
- T/C [4]: 110 % of control
- T/C (dose: 400.0 mg/kg/injection, schedule: Q04DX003 (ip), vehicle: saline with Tween-80): 101 % of control

Compound: CSC(=O)/N=C(/NC(=O)c1ccccc1)SC
- T/C [5]: 93 % of control
- T/C [6]: 91 % of control
- T/C [7]: 92 % of control

Compound: COc1ccc2c(c1)nc(/C(C(=O)C(=O)c1ccccc1)=C(\O)c1ccccc1)c(C)[n+]2[O-]
- T/C (dose: 60.0 mg/kg/injection, schedule: Q01DX005 (ip), vehicle: saline): 103 % of control
- T/C (dose: 120.0 mg/kg/injection, schedule: Q01DX005 (ip), vehicle: saline): 104 % of control
- T/C (dose: 240.0 mg/kg/injection, schedule: Q01DX005 (ip), vehicle: saline): 100 % of control

Compound: COc1ccc(Cc2cc3c(cc2OCC(=O)Nc2ccccn2)OCO3)cc1
- T/C (dose: 6.25 mg/kg/injection, schedule: Q01DX005 (ip), vehicle: saline with Tween-80): 92 % of control
- T/C (dose: 12.5 mg/kg/injection, schedule: Q01DX005 (ip), vehicle: saline with Tween-80): 90 % of control
- T/C (dose: 25.0 mg/kg/injection, schedule: Q01DX005 (ip), vehicle: saline with Tween-80): 86 % of control
- T/C [8]: 90 % of control
- T/C [9]: 90 % of control

Compound: CC(=O)OC1C2C3C2C2C1C32 (configuration not stated)
- T/C (dose: 100.0 mg/kg/injection, schedule: Q04DX002 (ip), vehicle: other): 113 % of control
- T/C (dose: 200.0 mg/kg/injection, schedule: Q04DX002 (ip), vehicle: other): 106 % of control
- T/C (dose: 400.0 mg/kg/injection, schedule: Q04DX002 (ip), vehicle: other): 103 % of control

Compound: CN(C)NP(=O)(NN(C)C)Oc1ccccc1
- T/C (dose: 50.0 mg/kg/injection, schedule: Q01DX005 (ip), vehicle: saline): 97 % of control
- T/C (dose: 100.0 mg/kg/injection, schedule: Q01DX005 (ip), vehicle: saline): 99 % of control
- T/C (dose: 200.0 mg/kg/injection, schedule: Q01DX005 (ip), vehicle: saline): 103 % of control

Compound: CC(C)OP(=O)(OC(C)C)c1ccncc1
- T/C [10]: 99 % of control
- T/C [11]: 96 % of control
- T/C (dose: 400.0 mg/kg/injection, schedule: Q01DX001 (ip), vehicle: saline): 101 % of control

Compound: CC(=O)c1c(O)c2cccc3c2n(c1=O)CCC3
- T/C (dose: 60.0 mg/kg/injection, schedule: Q01DX005 (ip), vehicle: Klucel (hydroxypropylcellulose) (HPC)): 96 % of control
- T/C (dose: 120.0 mg/kg/injection, schedule: Q01DX005 (ip), vehicle: Klucel (hydroxypropylcellulose) (HPC)): 97 % of control

Compound: CN(C)C1CC2CCCCC2CC1O (configuration not stated)
- T/C (dose: 25.0 mg/kg/injection, schedule: Q04DX003 (ip), vehicle: saline): 93 % of control
- T/C (dose: 50.0 mg/kg/injection, schedule: Q04DX003 (ip), vehicle: saline): 99 % of control
- T/C [10]: 104 % of control
- T/C (dose: 100.0 mg/kg/injection, schedule: Q04DX003 (ip), vehicle: saline): 103 % of control
- T/C [11]: 98 % of control

Compound: O=C1CC2(C(=O)N1)c1ccccc1-c1ccccc12
- T/C [12]: 96 % of control
- T/C [13]: 103 % of control
- T/C (dose: 200.0 mg/kg/injection, schedule: Q01DX009 (ip), vehicle: saline with Tween-80): 119 % of control

Compound: COc1cc2c(c(OC)c1OC)-c1ccc(OC)c(=O)cc1CC=C2
- T/C (dose: 1.25 mg/kg/injection, schedule: Q01DX009 (ip), vehicle: Klucel (hydroxypropylcellulose) (HPC)): 124 % of control
- T/C (dose: 2.5 mg/kg/injection, schedule: Q01DX009 (ip), vehicle: Klucel (hydroxypropylcellulose) (HPC)): 119 % of control and 120 % of control
- T/C (dose: 5.0 mg/kg/injection, schedule: Q01DX009 (ip), vehicle: Klucel (hydroxypropylcellulose) (HPC)): 100 % of control
- T/C (dose: 10.0 mg/kg/injection, schedule: Q01DX009 (ip), vehicle: Klucel (hydroxypropylcellulose) (HPC)): 170 % of control

Compound: CCOC(=O)C1=C(NC(=O)Nc2ccccc2)N(C(=O)Nc2ccccc2)CCC1
- T/C (dose: 100.0 mg/kg/injection, schedule: Q04DX003 (ip), vehicle: Klucel (hydroxypropylcellulose) (HPC)): 100 % of control
- T/C (dose: 200.0 mg/kg/injection, schedule: Q04DX003 (ip), vehicle: Klucel (hydroxypropylcellulose) (HPC)): 99 % of control
- T/C (dose: 400.0 mg/kg/injection, schedule: Q04DX003 (ip), vehicle: Klucel (hydroxypropylcellulose) (HPC)): 102 % of control

Compound: Nc1ccc(Cn2ccnn2)cc1
- T/C (dose: 60.0 mg/kg/injection, schedule: Q01DX005 (ip), vehicle: saline with Tween-80): 100 % of control
- T/C (dose: 120.0 mg/kg/injection, schedule: Q01DX005 (ip), vehicle: saline with Tween-80): 95 % of control
- T/C (dose: 240.0 mg/kg/injection, schedule: Q01DX005 (ip), vehicle: saline with Tween-80): 101 % of control

Compound: CCCCN(C)C12CN3CN(CN(C3)C1)C2
- T/C (dose: 50.0 mg/kg/injection, schedule: Q01DX009 (ip), vehicle: Klucel (hydroxypropylcellulose) (HPC)): 101 % of control
- T/C (dose: 100.0 mg/kg/injection, schedule: Q01DX009 (ip), vehicle: Klucel (hydroxypropylcellulose) (HPC)): 103 % of control
- T/C (dose: 200.0 mg/kg/injection, schedule: Q01DX009 (ip), vehicle: Klucel (hydroxypropylcellulose) (HPC)): 96 % of control

Compound: CCOC(=O)Cn1cnc2sc3c(c2c1=O)CCCC3
- T/C [14]: 100 % of control
- T/C [8]: 98 % of control
- T/C [9]: 89 % of control

Compound: Cc1cccc(C)c1NC(=O)C1CN(c2c(C)cccc2C)C(=O)/C1=N\O (configuration not stated)
- T/C [14]: 111 % of control
- T/C [8]: 108 % of control
- T/C [9]: 103 % of control

Compound: Clc1ccc2[nH]c3c(c2c1)CCCC3
- T/C [4]: 94 % of control

Compound: COc1cc2c[n+]3ccc4ccccc4c3c(N)c2cc1OC
- T/C (dose: 50.0 mg/kg/injection, schedule: Q04DX003 (ip), vehicle: distilled water + Tween-80): 97 % of control
- T/C (dose: 100.0 mg/kg/injection, schedule: Q04DX003 (ip), vehicle: distilled water + Tween-80): 106 % of control

Compound: COc1cc(C(=O)c2ccc3c(c2)OCO3)cc(OC)c1OC
- T/C [5]: 98 % of control
- T/C [6]: 93 % of control
- T/C [7]: 99 % of control

Compound: CCOc1ccc(C2=C(O)/C(=C(\C(=O)Nc3nccs3)c3ccc(OCC)cc3)OC2=O)cc1
- T/C [15]: 109 % of control
- T/C [16]: 104 % of control
- T/C [5]: 100 % of control and 104 % of control

Compound: CC1(C)CCC2(C(=O)OC3OC(CO)C(O)C(O)C3O)CCC3(C)C(=CCC4C5(C)CCC(OC6OC(CO)C(O)C(O)C6O)C(C)(C)C5CCC43C)C2C1 (configuration not stated)
- T/C (dose: 3.12 mg/kg/injection, schedule: Q01DX005 (ip), vehicle: Klucel (hydroxypropylcellulose) (HPC)): 98 % of control
- T/C (dose: 6.25 mg/kg/injection, schedule: Q01DX005 (ip), vehicle: Klucel (hydroxypropylcellulose) (HPC)): 104 % of control
- T/C [15]: 104 % of control
- T/C [16]: 95 % of control
- T/C [5]: 102 % of control

Compound: O=c1oc2c(cc1-c1ccccc1)CCc1ccccc1-2
- T/C [5]: 102 % of control
- T/C [6]: 100 % of control
- T/C [7]: 102 % of control

Compound: CCCc1cc(-c2cccc3ccccc23)c(CCC)c2c1-c1cccc3cccc-2c13
- T/C [12]: 97 % of control
- T/C [13]: 96 % of control
